These results are taken from patent US4840658A, “Algicidal composition” (Sumitomo Chemical Company, Limited, priority 1986, dated 1989).

Each structure is given as a SMILES string. Counter-ions that a name gives are not always drawn. Like-named read-outs stand apart in the source and are kept apart here.

The test system of data set [1] is Killifish (Oryzias latipes). As to the kind of experiment: Acute toxicity of unsaturated higher fatty acids to killifish. The data set is classed as in vivo. The conditions noted are these: adult killifish, 48 hr, 25° C. Here is the method:
Acute toxicity of the several unsaturated higher fatty acids.
Killifish (Oryzias latipes) at adult stage were acclimated to laboratory conditions in dechlorinated water. Fish were withheld from food for 24 hr prior to the test.
Graded levels of the compounds in 0.5 ml ethanol were added to glass vessels, and then mixed with 100 ml of dechlorinated fresh water. Five fish were introduced to the vessel and maintained for 48 hr at 25° C.
As a solvent control, 0.5% ethanol solution was used.

The test system of data set [2] is Heterosigma akashiwo. In words: Effect of unsaturated higher fatty acids on viability of Heterosigma akashiwo (cytolysis). The data set is classed as cell-based. The conditions noted are these: 0.5 h. How it is done: Effect of the several unsaturated higher fatty acids on viability of Heterosigma akashiwo.
(§1) Heterosigma akashiwo was incubated in PES medium under 14 hr photoperiod (3000 lux) condition at 20° C. The effects of test compounds were examined on the plankton at exponential growth phase and the medium at the phase generally contained 7×10^4 cells/ml.
(§2) The unsaturated higher fatty acid was accurately weighed and dissolved in benzene. An aliquot of the solution was transferred in a 10 ml volumetric flask. The benzene was removed in vacuo and the residue was dissolved in 0.2 ml of ethanol. A PES medium was added bit by bit to make a 10 ml solution.
(§3) Each of 1 ml of the plankton medium was transferred to the wells of a multi-dish at the cell number of 7×10^4. After good conditions of the plankton were confirmed under an inverted microscope, 1 ml of graded levels of the test solution was mixed. At specified intervals, morphological examination was conducted under the microscope, and effect concentration (EC100 ) was defined as the minimum concentration at which all of the plankton tested were cytolyzed 30 min after introduction of a test material.

The next data set deals with Chaetoceros debile. In words: Effects of OTA on viability of plankton species. The data set is classed as cell-based. Here is the method:
as §1, §2, §3
(§4) Effect of 6Z, 9Z, 12Z, 15Z-octadecateraeonic acid (OTA) on viability of several plankton species.
(§5) The test system was the same as in Experiment 1, except test concentration of 5 and 25 ppm and test duration of 48 hr.

The test system of the next data set is Chattonella antiqua. As to the kind of experiment: Effects of OTA on viability of plankton species. The data set is classed as cell-based. How it is done:
as §1, §2, §3, §4, §5

A further data set deals with Chattonella marina. In words: Effects of OTA on viability of plankton species. Format: cell-based. How it is done: as §1, §2, §3, §4, §5
The subject of a further data set is Chlamydomonas sp. In words: Effects of OTA on viability of plankton species. The data set is classed as cell-based. How it is done:
as §1, §2, §3, §4, §5

In the next data set the test system is Cryptomonas sp. In words: Effects of OTA on viability of plankton species. Format: cell-based. How it is done: as §1, §2, §3, §4, §5
The next data set deals with Eutreptia sp. As to the kind of experiment: Effects of OTA on viability of plankton species. The data set is classed as cell-based. Here is the method: as §1, §2, §3, §4, §5
Another data set relates to Gymnodinium nagasakiense. As to the kind of experiment: Effects of OTA on viability of plankton species. Format: cell-based. How it is done: as §1, §2, §3, §4, §5
For a further data set, the system named is Gymnodinium sanguineum. In words: Effects of OTA on viability of plankton species. Format: cell-based. How it is done:
as §1, §2, §3, §4, §5

For the next data set, the system named is Hafniomonas reticulata. In words: Effects of OTA on viability of plankton species. The data set is classed as cell-based. How it is done: as §1, §2, §3, §4, §5
A further data set has as its system Heterocapsa triguetra. In words: Effects of OTA on viability of plankton species. The data set is classed as cell-based. Here is the method:
as §1, §2, §3, §4, §5

For data set [3], the system named is Heterosigma akashiwo. As to the kind of experiment: Effects of OTA on viability of plankton species. The data set is classed as cell-based. Here is the method: as §1, §2, §3, §4, §5
Another data set deals with Nephroselmis sp. In words: Effects of OTA on viability of plankton species. Format: cell-based. How it is done:
as §1, §2, §3, §4, §5

In a further data set the test system is Olisthodiscus luteus. As to the kind of experiment: Effects of OTA on viability of plankton species. The data set is classed as cell-based. Here is the method:
as §1, §2, §3, §4, §5

The next data set has as its system Oltmannsiella sp. As to the kind of experiment: Effects of OTA on viability of plankton species. Format: cell-based. Here is the method:
as §1, §2, §3, §4, §5

The next data set deals with Prorocentrum micans. In words: Effects of OTA on viability of plankton species. The data set is classed as cell-based. How it is done:
as §1, §2, §3, §4, §5

The test system of a further data set is Pterosperma cristatum. In words: Effects of OTA on viability of plankton species. The data set is classed as cell-based. How it is done:
as §1, §2, §3, §4, §5

The next data set concerns Pyraminonas sp. In words: Effects of OTA on viability of plankton species. Format: cell-based. How it is done: as §1, §2, §3, §4, §5
A further data set deals with Skeletonema costatum. As to the kind of experiment: Effects of OTA on viability of plankton species. The data set is classed as cell-based. Here is the method: as §1, §2, §3, §4, §5
Another data set relates to Stephanopyris palmeriana. As to the kind of experiment: Effects of OTA on viability of plankton species. The data set is classed as cell-based. How it is done: as §1, §2, §3, §4, §5
Data set [4] relates to Cricosphaera roscoffensis. In words: Effects of OTA on viability of plankton species. Format: cell-based. Also noted: key: +: 100% cytolysis of planktons after 2 hr; ±: No cytolysis but no movement; -: No effect. How it is done:
as §1, §2, §3, §4, §5

In the next data set the test system is Tetraselmis cordiformis. In words: Effects of OTA on viability of plankton species. The data set is classed as cell-based. Also noted: key: +: 100% cytolysis of planktons after 2 hr; ±: No cytolysis but no movement; -: No effect. Here is the method: as §1, §2, §3, §4, §5
Data set [5] has as its system marine dinoflagellates (Dinophyceae). As to the kind of experiment: Algicidal activity against marine dinoflagellates. The data set is classed as cell-based.
Setting [6] is: minimum concentration at which all plankton cytolyzed 30 min after introduction, read-out: EC100.

For `CCC=CCC=CCC=CCC=CCC=CCCCC(=O)O` [Na salt of 5, 8, 11, 14, 17-eicosapentaenoic acid], in data set [1], the LC100 was over 50 ppm and the “Maximum no effect concentration” value was under 30 ppm.
`CCCCCCCC/C=C\CCCCCCCC(=O)O` [oleic acid] gave an EC100 in the data set with Heterosigma akashiwo [2] of 70 to 80 µg/mL.
On to `CCCCC/C=C\C/C=C\CCCCCCCC(=O)O` [linoleic acid], for which, in the data set on Heterosigma akashiwo [2] (setting [6]), the EC100 was determined as 25 µg/mL.
In turn, `CCCCC/C=C\C/C=C\C/C=C\C/C=C\CCCC(=O)O` [arachidonic acid] registered an EC100 with Heterosigma akashiwo [2] of 2.5 µg/mL.
In the case of `CC/C=C\C/C=C\C/C=C\C/C=C\CCCCC(=O)O` [OTA, 6Z, 9Z, 12Z, 15Z-octadecatetraenoic acid], in the data set with Heterosigma akashiwo [2] (setting [6]), the EC100 was found to be 2.5 µg/mL. In addition, the Effect on viability result in the data set on Chaetoceros debile (5 ppm), in the data set on Chaetoceros debile (25 ppm), in the data set with Chattonella antiqua (5 ppm), in the data set on Chattonella antiqua (25 ppm), with Chattonella marina (5 ppm) and with Chattonella marina (25 ppm) was “+ (100% cytolysis of planktons after 2 hr)” in each case. In addition, the Effect on viability entry with Chlamydomonas sp. (5 ppm), in the data set with Chlamydomonas sp. (25 ppm), in the data set on Cryptomonas sp. (5 ppm), in the data set with Cryptomonas sp. (25 ppm), in the data set with Eutreptia sp. (5 ppm) and in the data set with Eutreptia sp. (25 ppm) was “+ (100% cytolysis of planktons after 2 hr)” throughout. In addition, the Effect on viability entry with Gymnodinium nagasakiense (5 ppm), in the data set with Gymnodinium nagasakiense (25 ppm), in the data set on Gymnodinium sanguineum (5 ppm), with Gymnodinium sanguineum (25 ppm), in the data set with Hafniomonas reticulata (5 ppm) and in the data set on Hafniomonas reticulata (25 ppm) was “+ (100% cytolysis of planktons after 2 hr)” throughout. The Effect on viability entry in the data set with Heterocapsa triguetra (5 ppm), in the data set on Heterocapsa triguetra (25 ppm), in the data set on Heterosigma akashiwo [3] (5 ppm), in the data set with Heterosigma akashiwo [3] (25 ppm), in the data set on Nephroselmis sp. (5 ppm) and in the data set on Nephroselmis sp. (25 ppm) was “+ (100% cytolysis of planktons after 2 hr)” in each case. In addition, the Effect on viability entry in the data set with Olisthodiscus luteus (5 ppm), in the data set on Olisthodiscus luteus (25 ppm), in the data set on Oltmannsiella sp. (5 ppm), in the data set with Oltmannsiella sp. (25 ppm), with Prorocentrum micans (5 ppm) and in the data set with Prorocentrum micans (25 ppm) was “+ (100% cytolysis of planktons after 2 hr)” each time. Besides, the Effect on viability result with Pterosperma cristatum (5 ppm), with Pterosperma cristatum (25 ppm), in the data set on Pyraminonas sp. (5 ppm), in the data set on Pyraminonas sp. (25 ppm), in the data set on Skeletonema costatum (5 ppm) and in the data set on Skeletonema costatum (25 ppm) was “+ (100% cytolysis of planktons after 2 hr)” each time. In addition, the Effect on viability entry with Stephanopyris palmeriana (5 ppm) is “+ (100% cytolysis of planktons after 2 hr)”; in the data set on Stephanopyris palmeriana (25 ppm) it was “+ (100% cytolysis of planktons after 2 hr)”; in [4] (5 ppm) it was “±”; in data set [4] (25 ppm), “±”; with Tetraselmis cordiformis (5 ppm) it was “±”; in the data set with Tetraselmis cordiformis (25 ppm), “±”. For the same compound, in data set [1], the LC100 is given as over 25 ppm. In [1], the “Maximum no effect concentration” value was under 20 ppm. Also, the algicidal activity result in [5] was “strong algicidal activity”.
Take `CCC=CCC=CCC=CCC=CCC=CCCCC(=O)O` [5,8, 11, 14, 17-eicosapentaenoic acid]: the EC100 in the data set with Heterosigma akashiwo [2] (setting [6]) worked out at 2.5 µg/mL. Also, in data set [1], the LC100 was over 30 ppm and the “Maximum no effect concentration” value is listed as under 25 ppm.
As for `CC/C=C\C/C=C\C/C=C\CCCCCCCC(=O)[O-].[Na+]` [sodium linolenate], in [1], the LC100 is over 150 ppm and the “Maximum no effect concentration” value is under 100 ppm.
Consider `CCCCC/C=C\C/C=C\C/C=C\CCCCC(=O)O` [γ-linolenic acid], for which the EC100 in the data set on Heterosigma akashiwo [2] (setting [6]) was found to be 25 µg/mL. Besides, in data set [1], the LC100 was over 50 ppm and the “Maximum no effect concentration” value is on record as under 40 ppm.
